The term IC50 denotes the concentration at which inhibition is half-maximal.

T1 sequence (O70528 whole entry): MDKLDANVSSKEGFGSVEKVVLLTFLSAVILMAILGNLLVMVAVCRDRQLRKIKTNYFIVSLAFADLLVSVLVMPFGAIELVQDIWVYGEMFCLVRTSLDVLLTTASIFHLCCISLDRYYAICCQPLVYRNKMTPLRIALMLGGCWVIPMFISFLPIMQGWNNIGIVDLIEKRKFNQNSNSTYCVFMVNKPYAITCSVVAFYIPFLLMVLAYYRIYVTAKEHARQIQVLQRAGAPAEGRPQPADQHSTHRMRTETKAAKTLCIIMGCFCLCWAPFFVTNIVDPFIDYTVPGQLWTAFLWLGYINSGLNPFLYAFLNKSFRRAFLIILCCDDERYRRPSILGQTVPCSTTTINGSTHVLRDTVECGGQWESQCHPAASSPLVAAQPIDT

One test addresses T1, Serotonin 4 (5-HT4) Receptors (Cavia porcellus, UniProt O70528).
T1 construct: the striatum was dissected; from tissue; host or cells: guinea pig (Std-Hartley) brain striatum, membrane fractions
Nature of the test: Binding Assay on Serotonin 4 (5-HT4) Receptors ([3H]-GR113808, striatum membrane fractions). Also on record: species or system guinea pig (Std-Hartley). The note with it: 50% inhibition of specific binding of 0.1 nM [3H]-GR113808; 37° C., 30 min; test compounds are fumarates except numbers marked ** (62, 72, 74: free bases). As for the experimental part: Std-Hartley guinea pigs weighing 300-400 g were decapitated, and the brain thereof was immediately taken out, and the striatum was dissected. To the tissue thus obtained was added 15-times volume of Hepes buffer (50 mM, pH7.4, 4° C.), homogenized in a Teflon homogenizer, and centrifuged at 48,000×g at 4° C. for 15 minutes. The pellet was suspended in the same Hepes buffer in a volume of 1 ml per 30 mg of the wet tissues to give receptor membrane fractions.
The reaction was terminated by rapid vacuum filtration and washing (3×4 ml) with ice-cold 50 mM Tris-HCl buffer (pH 7.7) through Whatman GF/B filter paper using a Brandel cell harvester. Prior to the filtration, the filter to be used was presoaked in a 0.1% solution of polyethylenimine for one hour. The radioactivity on the filter was determined with by ACS-II scintillation cocktail by a liquid scintillation counter.
Molecule `CCN(CC)C(=O)N1CCC(CN2CCC(NC(=O)c3cc(Cl)c(N)cc3OC)CC2)CC1` [Example 2] came in with a concentration for half-maximal inhibition (IC50) of 11.9 nM.
For the molecule `COc1cc(N)c(Cl)cc1C(=O)NC1CCN(CC2CCN(C(=O)N(C(C)C)C(C)C)CC2)CC1` [Example 3], the IC50 was 15.5 nM.
Molecule `CCN(C)C(=O)N1CCC(CN2CCC(NC(=O)c3cc(Cl)c(N)cc3OC)CC2)CC1` [Example 4, 4-amino-5-chloro-N-[1-[1-(N-ethyl-N-methylcarbamoyl)-4-piperidinylmethyl]-4-piperidinyl]-2-methoxybenzamide] came in with an IC50 of 11.9 nM.
Take `CCCN(C)C(=O)N1CCC(CN2CCC(NC(=O)c3cc(Cl)c(N)cc3OC)CC2)CC1` [Example 5]: the half-maximal inhibitory concentration (IC50) worked out at 7.6 nM.
As to `COc1cc(N)c(Cl)cc1C(=O)NC1CCN(CC2CCN(C(=O)N(C)c3ccccc3)CC2)CC1` [Example 8, 4-amino-5-chloro-2-methoxy-N-[1-[1-(N-methyl-N-phenylcarbamoyl)-4-piperidinylmethyl]-4-piperidinyl]benzamide], the IC50 came to 6.3 nM.
In the case of `CCN(CC)C(=S)N1CCC(CN2CCC(NC(=O)c3cc(Cl)c(N)cc3OC)CC2)CC1` [Example 11], the IC50 is 6.8 nM.
For `COc1cc(N)c(Cl)cc1C(=O)NC1CCN(CC2CCN(C(=O)N3CCOCC3)CC2)CC1` [Example 13], the IC50 is 19.1 nM.
The molecule `COc1cc(N)c(Cl)cc1C(=O)NC1CCN(CC2CCN(S(=O)(=O)N(C)C)CC2)CC1` [Example 16] had an IC50 of 14.2 nM.
In the case of `CCOc1cc(N)c(Cl)cc1C(=O)NC1CCN(CC2CCN(C(=S)N(C)C)CC2)CC1` [Example 33, 4-Amino-5-chloro-N-[1-(1-dimethylthiocarbamoyl-4-piperidinylmethyl)-4-piperidinyl]-2-ethoxybenzamide], the IC50 was 2.3 nM.
Molecule `COc1cc(N)c(Cl)cc1C(=O)NC1CCN(CC2CCN(C(=O)Nc3ccc(Cl)cc3)CC2)CC1` [Example 38] registered a 50% inhibitory concentration (IC50) of 1.6 nM.
Consider `COc1ccc(NC(=O)N2CCC(CN3CCC(NC(=O)c4cc(Cl)c(N)cc4OC)CC3)CC2)cc1` [Example 39], for which the IC50 was found to be 2.3 nM.
With `COc1cc(N)c(Cl)cc1C(=O)NC1CCN(CC2CCN(C(=O)Nc3ccc(C)cc3)CC2)CC1` [Example 40], the IC50 was found to be 1.7 nM.
On to `CCCNC(=O)N1CCC(CN2CCC(NC(=O)c3cc(Cl)c(N)cc3OC)CC2)CC1` [Example 42], for which the half-inhibitory concentration (IC50) was found to be 6.4 nM.
Molecule `COc1cc(N)c(Cl)cc1C(=O)NC1CCN(CC2CCN(C(=O)NCc3ccccc3)CC2)CC1` [Example 47] gave an IC50 of 1.6 nM.
The same measure, in the same setting: then `COc1cc(N)c(Cl)cc1C(=O)NC1CCN(CC2CCN(C(=O)NC3CCCC3)CC2)CC1` [Example 49], with 4.4 nM; and `COc1cc(N)c(Cl)cc1C(=O)NC1CCN(CC2CCN(C(=O)NC3CCCCCC3)CC2)CC1` [Example 51], with 1.9 nM.
`COc1cc(N)c(Cl)cc1C(=O)NC1CCN(CC2CCN(C(N)=O)CC2)CC1` [Example 53, 4-amino-N-[1-(1-carbamoyl-4-piperidinylmethyl)-4-piperidinyl]-5-chloro-2-methoxybenzamide] yielded a half-maximal inhibitory concentration (IC50) of 9.8 nM.
Molecule `COc1ccc(C(=O)N2CCC(CN3CCC(NC(=O)c4cc(Cl)c(N)cc4OC)CC3)CC2)cc1` [Example 60] returned a half-inhibitory concentration (IC50) of 3.9 nM.
For the molecule `COc1cc(N)c(Cl)cc1C(=O)NC1CCN(CC2CCN(C(=O)c3ccc(C)cc3)CC2)CC1` [Example 61], the half-inhibitory concentration (IC50) came out at 4.6 nM.
Still for that read-out and setting: then `COc1cc(N)c(Cl)cc1C(=O)NC1CCN(CC2CCN(C(=O)c3cc(Cl)c(N)cc3OC)CC2)CC1` [Example 62], with 1.4 nM; and `COCC(=O)N1CCC(CN2CCC(NC(=O)c3cc(Cl)c(N)cc3OC)CC2)CC1` [Example 63], with 20.7 nM; and `COC(=O)CCCC(=O)N1CCC(CN2CCC(NC(=O)c3cc(Cl)c(N)cc3OC)CC2)CC1` [Example 69], with 18 nM.
As to `COc1cc(N)c(Cl)cc1C(=O)NC1CCN(CC2CCN(C(=O)c3ccccc3)CC2)CC1` [Example 72, 4-amino-N-[1-(1-benzoyl-4-piperidinylmethyl)-4-piperidinyl]-5-chloro-2-methoxybenzamide], the IC50 is 6.8 nM.
For the molecule `COc1cc(N)c(Cl)cc1C(=O)NC1CCN(CC2CCN(C(=O)c3ccc(Cl)cc3)CC2)CC1` [Example 73], the IC50 was 4.2 nM.
As for `COc1cc(N)c(Cl)cc1C(=O)NC1CCN(CC2CCN(C(=O)c3cc(OC)c(OC)c(OC)c3)CC2)CC1` [Example 74], the concentration for half-maximal inhibition (IC50) was determined as 9 nM.
Turning to `COc1cc(N)c(Cl)cc1C(=O)NC1CCN(CC2CCN(C(C)C(C)=O)CC2)CC1` (stereo not shown) [Example 84, 4-amino-N-[1-[1-(2-butanon-3-yl)-4-piperidinylmethyl]-4-piperidinyl]-5-chloro-2-methoxybenzamide], the half-inhibitory concentration (IC50) was determined as 14.2 nM.
With `COc1cc(N)c(Cl)cc1C(=O)NC1CCN(CC2CCN(CC(C)=O)CC2)CC1` [Example 85], the IC50 stood at 18.2 nM.
Regarding `COc1cc(N)c(Cl)cc1C(=O)NC1CCN(CC2CCN(CC(=O)C(C)(C)C)CC2)CC1` [Example 87], the IC50 stood at 11.9 nM.
Molecule `COc1cc(N)c(Cl)cc1C(=O)NC1CCN(CC2CCN(CCCC(C)=O)CC2)CC1` [Example 88] yielded a concentration for half-maximal inhibition (IC50) of 7.2 nM.
Consider `CCC(=O)CCN1CCC(CN2CCC(NC(=O)c3cc(Cl)c(N)cc3OC)CC2)CC1` [Example 89], for which the half-maximal inhibitory concentration (IC50) turned out to be 6.5 nM.
On the same count and under the same terms, then `CCOC(=O)CCCN1CCC(CN2CCC(NC(=O)c3cc(Cl)c(N)cc3OC)CC2)CC1` [Example 92], with 4.1 nM.
As for `CCCCC(C(=O)OCC)N1CCC(CN2CCC(NC(=O)c3cc(Cl)c(N)cc3OC)CC2)CC1` (stereo not shown) [Example 98], the 50% inhibitory concentration (IC50) was determined as 12.5 nM.
Molecule `CCC(=O)CN1CCC(CN2CCC(NC(=O)c3cc(Cl)c(N)c4c3OCC4)CC2)CC1` [Example 99, 4-amino-N-[1-[1-(2-butanon-1-yl)-4-piperidinylmethyl]-4-piperidinyl]-5-chloro-2,3-dihydrobenzo[b]furan-7-carboxamide] gave a half-inhibitory concentration (IC50) of 3.9 nM.
Take `CCOC(=O)CCCN1CCC(CN2CCC(NC(=O)c3cc(Cl)c(N)c4c3OCC4)CC2)CC1` [Example 100, 4-amino-5-chloro-N-[1-[1-(3-ethoxycarbonylpropyl)-4-piperidinylmethyl]-4-piperidinyl]-2,3-dihydrobenzo[b]furan-7-carboxamide]: the IC50 stood at 1 nM.

The test system of another test is Mice of Std-ddY strain (evacuation). Nature of the test: Assay on Evacuation in Mice (fecal pellets, oral). Type of test: in vivo, mouse (Std-ddY, male). Also on record: key: -: Inactive; +: Moderately stimulated (P<0.05); ++: Markedly stimulated (p<0.01). The note with it: 1 mg/kg oral; fecal pellets at 30, 60 and 120 minutes; Dunnett's test; fumarates except numbers marked ** (25, 86: free bases). As for the experimental part:
Male mice of Std-ddY strain weighing 25-30 g were used. Free access to food and water was allowed up to the beginning of the procedure.
The mice (each group: five mice) were placed in a mesh bottom cage for fasting, and they were allowed for acclimation to new environment for about one hour prior to the start of the experiment. A test compound, which was previously suspended in the 0.5% tragacanth solution, was administered orally to the mice at a dose of 1 mg/kg. The fecal pellets were counted and collected at 30, 60 and 120 minutes after the treatment of a test compound, and weighed.
The statistical judgment of efficacy was carried out between the control group and the treated group, and determined by Dunnett's test.
Regarding `CCN(CC)C(=O)N1CCC(CN2CCC(NC(=O)c3cc(Cl)c(N)cc3OC)CC2)CC1` [Example 2], the “Effect (evacuation)” value is “+”.
For `CCN(C)C(=O)N1CCC(CN2CCC(NC(=O)c3cc(Cl)c(N)cc3OC)CC2)CC1` [Example 4, 4-amino-5-chloro-N-[1-[1-(N-ethyl-N-methylcarbamoyl)-4-piperidinylmethyl]-4-piperidinyl]-2-methoxybenzamide], the “Effect (evacuation)” value is reported as “++”.
Still for that read-out and setting: then `COc1cc(N)c(Cl)cc1C(=O)NC1CCN(CC2CCN(C(=O)N(C)c3ccccc3)CC2)CC1` [Example 8, 4-amino-5-chloro-2-methoxy-N-[1-[1-(N-methyl-N-phenylcarbamoyl)-4-piperidinylmethyl]-4-piperidinyl]benzamide], with “++”; and `COCCC(=O)N1CCC(CN2CCC(NC(=O)c3cc(Cl)c(N)cc3OC)CC2)CC1` [Example 64], with “+”.
The same measure, in the same setting: the value for `COc1cc(N)c(Cl)cc1C(=O)NC1CCN(CC2CCN(C(C)=O)CC2)CC1` [Example 75] was “++”.
As for `COC(=O)N1CCC(CN2CCC(NC(=O)c3cc(Cl)c(N)cc3OC)CC2)CC1` [Example 76], the “Effect (evacuation)” value is listed as “++”.
Regarding `CCOC(=O)N1CCC(CN2CCC(NC(=O)c3cc(Cl)c(N)cc3OC)CC2)CC1` [Example 77], the “Effect (evacuation)” value is reported as “++”.
Take `COc1cc(N)c(Cl)cc1C(=O)NC1CCN(CC2CCN(C=O)CC2)CC1` [Example 79, 4-amino-5-chloro-N-[1-(1-formyl-4-piperidinylmethyl) -4-piperidinyl]-2-methoxybenzamide]: the “Effect (evacuation)” value is listed as “+”.
Regarding `CCOC(=O)CN1CCC(CN2CCC(NC(=O)c3cc(Cl)c(N)cc3OC)CC2)CC1` [Example 90], the “Effect (evacuation)” value is given as “+”.

Values taken from patent US6294555A, “1-[(1-Substituted-4-piperidinyl)methyl]-4-piperidine derivative, process for producing the same, medicinal compositions containing the same and intermediates of these compounds” (Dainippon Pharmaceutical Co., Ltd., priority 1998, dated 2001).
